B1: IL-33: mouse rIL-33 (R&D Systems) given intranasally or added to ILC2 cultures (protein, UniProt Q8BVZ5 1-266, looked up)
Interleukin-33: MRPRMKYSNSKISPAKFSSTAGEALVPPCKIRRSQQKTKEFCHVYCMRLRSGLTIRKETSYFRKEPTKRYSLKSGTKHEENFSAYPRDSRKRSLLGSIQAFAASVDTLSIQGTSLLTQSPASLSTYNDQSVSFVLENGCYVINVDDSGKDQEQDQVLLRYYESPCPASQSGDGVDGKKLMVNMSPIKDTDIWLHANDKDYSVELQRGDVSPPEQAFFVLHKKSSDFVSFECKNLPGTYIGVKDNQLALVEEKDESCNNIMFKLSKI

Experiments:
Pla2g5-null ILC2 = test: In-vitro stimulation of sorted Pla2g5-null ILC2, intracellular IL-5 by flow cytometry; type: cell-based, mouse; details: LA 200 μM, 8 h; for percentage of IL-5-expressing ILC2s: OA 200 μM or IL-33 30 ng/ml alone; for IL-33-induced increase in IL-5 positive ILC2s, effect of FFA: OA 200 μM with IL-33 30 ng/ml
Protocol: (§1) Lung were manually chopped to approximately 10 mm pieces, then digested in RPMI containing 428 U/ml Collagenase IV (Worthington, Lakewood, N.J.) and 20 mg/ml DNAse I (Roche, Mannheim, Germany) (30 min, 37° C.). After red cell lysis, the obtained cell suspension from single mouse was washed, and counted. After washing, cells were blocked (1 h, 4° C.) with 1% of rat anti mouse CD16/CD32 (BD Biosciences, San Jose, Calif.) and 10% donkey serum and then stained (1 h, 4° C.) with appropriate Abs. Mouse cells were stained with CD45 PercPCy5 (clone 30-F11, BioLegend, San Diego, Calif.), CD19 FITC (6D5, Biolegend), CD3 FITC (145-2C11, BioLegend), CD11b FITC (M1/70, BioLegend), CD11c PE-Cy7 FITC (N418, BioLegend), Ly6G/C FITC (RB6-8C5, eBiosciences), Nk1.1 FITC (PK136, Biolegend), FceR1 FITC (MAR-1, Biolegend), Siglec-F APC (E50-2440, BD Bioscience), Thy 1.2 APC (53-2.1, eBioscience, San Diego, Ca), ICOS (C398.4A, eBiosciences), Sca-1 (D7, eBioscieces), CD25 (PC61, eBiosciences), ST2 biotin (clone DJ8, MD Bioscience) followed by PE streptavidin (eBiosciences). In selected experiments cells were fixed with 4% paraformaldehyde (7 min, 21° C.), washed, permeabilized with 0.1% saponin (SigmaAldrich, St Louis, Ca) (7 min, 21° C.) and stained with CD68 APC (FA-11, AbD Serotec, Raleigh, Nc), IL-5 PE (TRFKS, Biolegend), IL-13 (eBio13A eBiosciences), IL-33 PE (396118, R&D Systems, Minneapolis, Minn.), rabbit polyclonal anti murine RELM-a (Peprotech, Rocky Hill N.J.)) and corresponding isotypes as controls. Acquisition was performed on a FACSCanto flow cytometer with FACSDiva software (BD Biosciences), and data were analyzed with FlowJo (Tree Star, Ashland, Oreg.).
(§2) Wt and Pla2g5-null mice received four doses of 25 ug of Alternaria in 20 ul of PBS intranasally on day 0, 3, 6 and 9 and euthanized 18h later in order to expand ILC2 prior to FACs sorting. Sorting of ILC2 (CD45+ Lin− (CD3, CD19, Ly6g, CD11c, CD11b, Nk1.1, FcεR1^−), Thy1.2+) was performed using a FACSDiva 8.0.1 cell sorter (BD bio-science). Purified ILC2 (>98%) were rested for 40 hours with 10 ng/mL rIL-2 and rIL-7 (R&D Systems, Minneapolis, Minn.) in a 96 well around bottom plates (20000 cells per well). Prior to stimulation, the medium was changed to fresh medium. ILC2 were cultured with 30 ng/mL rIL-33 (R&D Systems), 200 μM Linoleic Acid (Cayman Chemical) or 200 μM Oleic Acid (Cayman Chemical)^22 or all together for 8h. For intracellular cytokine staining, 1 μl/mL of Golgi Plug (BD Bioscience) was added to ILC2 6h before collection for FACs analysis.

Pla2g5-null mice = test: IL-33-induced pulmonary inflammation (intranasal r-IL-33 with or without LA/OA) in Pla2g5-null mice; type: in vivo, mouse; details: for IL-33-induced eosinophilia (numbers of eosinophils), effect of FFA given with IL-33 / pulmonary inflammation: intranasal, 4 doses in 10 days; for pulmonary inflammation: agent given alone
Protocol: (§3) C57/BL6 Wt and Pla2g5-null mice^46, 47 (9-12 wk-old males) received 25 μg of Alternaria haracter extract (Greer Laboratories, Lenoir, N.C.) in 20 uL of PBS or PBS alone intranasally on days 0, 3, 6 and 9 and euthanized 18 hours later^1 or a single dose of 100 μg and were euthanized after 1 h or 3 h^2. For IL-33-induced pulmonary inflammation, Wt and Pla2g5-null naïve mice were given mouse rIL-33 (R&D Systems, Minneapolis, Minn.) intranasally (i.n.) 100 ng/dose on days 0, 3, 6 and 9 with or without LA (132 nM)^28 or OA (106 nM), and mice were euthanized 18 hours after the last dose.
as §1

Wt ILC2 = test: In-vitro stimulation of sorted Wt ILC2, intracellular IL-5 by flow cytometry; type: cell-based, mouse; details: LA 200 μM, 8 h; for percentage of IL-5-expressing ILC2s: OA 200 μM or IL-33 30 ng/ml alone
Protocol: as §1, §2

C57/BL6 Wt mice = test: IL-33-induced pulmonary inflammation (intranasal r-IL-33 with or without LA/OA) in Wt mice; type: in vivo, mouse; details: for pulmonary inflammation: agent given alone
Protocol: as §3, §1

Row | Molecule | percentage of IL-5-expressing ILC2s (Pla2g5-null ILC2) | IL-33-induced increase in IL-5 positive ILC2s, effect of FFA (Pla2g5-null ILC2) | IL-33-induced eosinophilia (numbers of eosinophils), effect of FFA given with IL-33 (Pla2g5-null mice) | pulmonary inflammation (Pla2g5-null mice) | percentage of IL-5-expressing ILC2s (Wt ILC2) | IL-33-induced expression of IL-5 by ILC2s, effect of FFA (Wt ILC2; OA 200 μM with IL-33 30 ng/ml) | IL-33-induced eosinophilia (numbers of eosinophils), effect of FFA given with IL-33 (C57/BL6 Wt mice; intranasal, 4 doses in 10 days) | pulmonary inflammation (C57/BL6 Wt mice; intranasal, 4 doses in 10 days) | numbers of eosinophils, ILC2 and Sca-1+ILC2 (Pla2g5-null mice; IL-33 i.n. over 10 days, compared with Wt controls) | macrophage activation (RELMα in macrophages) (Pla2g5-null mice; exogenous IL-33 for 10 days) | numbers of eosinophils, ILC2s and Sca-1+ILC2 (C57/BL6 Wt mice; IL-33 i.n. over 10 days (100 ng/dose days 0, 3, 6, 9), homogenate lungs, flow cytometry) | macrophage activation (RELMα in macrophages) (C57/BL6 Wt mice; exogenous IL-33 for 10 days)
1 | CCCCC/C=C\C/C=C\CCCCCCCC(=O)O [LA, linoleic acid] | Neither LA nor OA induced significant IL-5 expression | suppressed | failed to potentiate | Neither LA nor OA alone caused pulmonary inflammation | Neither LA nor OA induced significant IL-5 expression | significantly potentiated | sharp potentiation | Neither LA nor OA alone caused pulmonary inflammation | – | – | – | –
2 | CCCCCCCC/C=C\CCCCCCCC(=O)O [OA, oleic acid] | Neither LA nor OA induced significant IL-5 expression | inactive | substantially enhance | Neither LA nor OA alone caused pulmonary inflammation | Neither LA nor OA induced significant IL-5 expression | – | – | Neither LA nor OA alone caused pulmonary inflammation | – | – | – | –
3 | B1 | significantly increased | – | – | insufficient | significantly increased | – | – | induces | markedly diminished | markedly impaired | robustly increased | induced substantial macrophage activation

Reference: patent US11273176B2, “Use of PLA2G5-deficient suppressive macrophages in suppression of inflammation” (THE BRIGHAM AND WOMEN'S HOSPITAL, INC., priority 2016, dated 2022)
